{"source": "patent US7166761B2", "about": "“Method of screening PTPζ activity promoter or inhibitor” (priority 2000, dated 2007)", "molecules": {"B1": {"name": "pleiotrophin: a heparin-binding secretory protein of 18 kD that binds to extracellular regions of PTPζ (protein, UniProt P21246 33-168, looked up)", "Pleiotrophin": "GKKEKPEKKVKKSDCGEWQWSVCVPTSGDCGLGTREGTRTGAECKQTMKTQRCKIPCNWKKQFGAECKYQFQAWGECDLNTALKTRTGSLKRALHNAECQKTVTISKPCGKLTKPKPQAESKKKKKEGKKQEKMLD"}}, "key": {"[1]": {"system": "striatal synaptosomes", "settings": "[3H] DA 1 to 10 nM, 30 degree C; for Km: read-out: [3H] DA uptake Km, mean±SEM of three", "protocol": "Dopamine (DA) uptake was measured as follows. Striatal synaptosome tissue pools (3 animals/pool) were homogenized in 100 volume (v/w) of 0.32 M sucrose in a teflonglass homogenizer and centrifuged at 12,000 rpm for 10 minutes. The crude synaptosomal pellet was resuspended in 0.32 M sucrose at a concentration of 30 mg/ml (original wet weight) and divided into 30 μl aliquots. Each aliquot was added with 270 μl of Krebs-Ringer phosphate buffer with increasing concentrations of [^3H] DA (final 1–10 nM, […], Amersham Pharmacia Biotech UK Ltd.). After incubating the resultant solution for 3 minutes at 30° C., uptake was quickly terminated by filtration through Whatman GF/C glass filters. The filters were rinsed three times with 2.5 ml ice-cold 0.32 M sucrose and measured by using a liquid scintillation counter at an efficiency of 50%. Blank values were measured in the presence of 10 μM GBR12909.\n[^3H] DA was mixed with striatal synaptosomes and [^3H] DA uptake into tissues was measured (the above-mentioned method A-6-1). The homogenate of the striatal synaptosomes was incubated for 2 minutes at 30° C. in the presence of [^3H] DA (1 to 10 nM)."}, "[2]": {"system": "mice", "assay": "Effects of psychostimulant drugs on locomotor activity", "format": "in vivo, mouse", "protocol": "The effects of psychostimulant drugs on locomotor activity were measured in a clear acrylic chamber (40×40×40 cm) by measuring animal movements with an electromagnetic activity monitoring system (sensor unit 0603, scanner 1099, Panlab). Before drug administration, the animals were acclimated to the measurement circumstance for at least 90 minutes. The animals were then administered with a stimulant drug, methamphetamine (METH) (1 mg/kg, s.c.), GBR12909 (2 mg/kg, i.p.), apomorphine (1 mg/kg, s.c.), or p-chloro-amphetamine (2 mg/kg, i.p.), and saline as administered to a control, and locomotor activity was monitored for the next 60 minutes."}, "[3]": {"system": "nucleus accumbens (NAC)", "assay": "In vivo microdialysis of nucleus accumbens: METH-induced DA release and locomotion", "set-up": "species or system mouse", "protocol": "Mice were anaesthetized with sodium pentobarbital (80 mg/kg i.p.) and placed in a stereotaxic apparatus. A hole was drilled through the skull and an intracerebral guide cannula (CMA 11, CMA/Microdialysis AB) was inserted into the nucleus accumbens (NAC) and fixed with dental cement. The stereotaxic coordinates for implantation of the guide cannula in both wild-type and PTPζ-deficient mice were: anterior, +1.1 mm, ventral, +3.6 mm, lateral, +1.0 mm to the surface of bregma. 24 hours after the surgery, mice were chained to a counterbalance lever arm attached to a locomotor activity chamber (30×30 cm) with an infrared monitoring apparatus (SCANET LC-10, Toyo Sangyo Co., Ltd.). Dialysis probes (membrane length 1 mm; external diameter 0.24 mm; cuprophane CUP 11, CMA/Microdialysis AB) were inserted through the guide cannula and perfusion was performed with artificial cerebrospinal fluid (ACSF), pH 7.4, (in mM; 145.ONaCl, 2.7 KCl, 1.2 CaCl2, 1.0 MgCl2, and 2.0 NaH2PO4) at a flow rate of 2 μl/min. Perfusates were collected from freely moving animals every 20 minutes in a tube containing 20 μl of 0.4 M HClO4 (CMA 170). Samples were collected and assayed using HPLC-ECD as described above except for the following modifications: the column was MCM C-18 (4.6×150 mm) and the buffer contained 75 mM NaH2PO4, 1.7 mM 1-octanesulfonic acid sodium salt, 0.1 mM triethylamine, 25 μM EDTA·2Na and 10% acetonitrile, at flow rate of 0.55 ml/min at 30° C. The electrode was set at +320 mV. METH administration (1 mg/kg s.c.) or local infusion of high K^+ solution (in mM: 47.7 NaCl, 100.0 KCl, 1.2 CaCl2, 1.0 MgCl2, and 2.0 NaH2PO4, pH 7.4) through the microdialysis probe was performed after the state became steady."}, "[4]": {"system": "mouse gastric epithelium", "assay": "Gastric ulcer formation caused by oral pleiotrophin", "format": "in vivo", "settings": "48 hours", "protocol": "The role of PTPζ in gastric ulcer formation caused by pleiotrophin was examined as follows. After a mouse (female) of 4 weeks old was starved for 24 hours (fed water ad libitum), pleiotrophin (Peptide Institute, Inc.) was orally administered to the mouse with a sound. 48 hours later, gastric specimens were prepared and the surface of inside wall of stomach was observed by a stereomicroscope, and then pathologic specimens were prepared by hematoxylen eosin staining and analyzed."}}, "note": "Where two headings read alike, the source gives them in different places."}
{"molecule": "NCCc1ccc(O)c(O)c1", "note": "[[^3H] DA, dopamine]", "values": [{"measurement": "[3H] DA uptake Vmax", "setting": "[1]; PTPζ+/+ mice", "result": "45.74 ± 2.77", "unit": "pmol/3 min/mg"}, {"measurement": "[3H] DA uptake Vmax", "setting": "[1]; PTPζ−/− mice", "result": "58.70 ± 1.03", "unit": "pmol/3 min/mg"}, {"measurement": "Km", "setting": "[1]; PTPζ+/+ mice", "result": "0.109 ± 0.00245", "unit": "µM"}, {"measurement": "Km", "setting": "[1]; PTPζ−/− mice", "result": "0.147 ± 0.0113", "unit": "µM"}]}
{"molecule": "CN1CCc2cccc3c2[C@H]1Cc1ccc(O)c(O)c1-3", "note": "[apomorphine]", "values": [{"measurement": "locomotor activity, responsiveness of PTPζ-deficient mice", "setting": "[2]; 2 mg/kg, s.c., total counts during 60 minutes after administration", "result": "normal"}]}
{"molecule": "CN[C@@H](C)Cc1ccccc1", "note": "[methamphetamine]", "values": [{"measurement": "DA release in NAC, PTPζ-deficient compared to wild-type mice", "setting": "[3]; PTPζ−/− mice (n=6), 1 mg/kg, s.c., microdialysis", "result": "markedly diminished DA release"}, {"measurement": "METH-enhanced locomotion, PTPζ−/− compared to wild-type mice", "setting": "[3]; freely moving animals during microdialysis, infrared monitoring apparatus", "result": "statistically attenuated"}, {"measurement": "extracellular DA in nucleus accumbens", "setting": "[3]; wild-type mice (n=7), 1 mg/kg, s.c., microdialysis", "result": "definitely increased"}, {"measurement": "locomotor response, PTPζ−/− compared to wild-type mice", "setting": "[2]; 1 mg/kg, s.c., electromagnetic sensors, n=9 per genotype", "result": "significantly attenuated locomotor response"}]}
{"molecule": "CC(N)Cc1ccc(Cl)cc1", "note": "(centres unmarked) [p-chloro-amphetamine]", "values": [{"measurement": "locomotor activity, sensitivity of PTPζ-deficient mice", "setting": "[2]; 2 mg/kg, i.p., total counts during 60 minutes after administration, 5-HT liberator", "result": "hyposensitive"}]}
{"molecule": "B1", "values": [{"measurement": "hematoxylen eosin staining of gastric specimens", "setting": "[4]; PTPζ-deficient mice", "result": "totally normal"}, {"measurement": "epithelial damage on gastric epithelium under a stereomicroscope", "setting": "[4]; PTPζ−/− mice", "result": "no damage was observed"}, {"measurement": "epithelial damage on gastric epithelium under a stereomicroscope", "setting": "[4]; wild-type mice", "result": "Profuse bleeding"}, {"measurement": "hematoxylen eosin staining of gastric specimens", "setting": "[4]; wild-type mice", "result": "obvious damage"}]}
